Experimental data: paper PMC2195872 (The Journal of Experimental Medicine, 2000)

Biological target: LTB4 receptor (Homo sapiens, UniProt Q15722)
Assay: [3H]LTB4 competition radioligand binding on HEK293 cells
Assay type: cell-based

Sequence of LTB4 receptor (Q15722 whole entry): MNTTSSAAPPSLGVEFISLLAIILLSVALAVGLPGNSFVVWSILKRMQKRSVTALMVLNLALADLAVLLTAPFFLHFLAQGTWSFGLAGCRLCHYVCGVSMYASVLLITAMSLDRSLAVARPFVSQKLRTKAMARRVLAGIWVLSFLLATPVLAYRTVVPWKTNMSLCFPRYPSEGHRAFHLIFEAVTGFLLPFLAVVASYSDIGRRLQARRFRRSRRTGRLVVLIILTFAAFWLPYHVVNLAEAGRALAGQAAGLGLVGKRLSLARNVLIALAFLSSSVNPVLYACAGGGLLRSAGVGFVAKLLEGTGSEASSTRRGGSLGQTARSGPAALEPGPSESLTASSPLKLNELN

Q: With `CC/C=C\C/C=C\C[C@@H](O)/C=C/C=C/C=C\[C@@H](O)CCCC(=O)O` [LTB5] as the compound, how does the IC50 read?
A: The IC50 was about 500 nM.
